Measured values reported in US6323235A, “Benzene-condensed heterocyclic derivatives and their uses” (priority 1995, dated 2001).

What was measured:
[1] = system: platelet aggregation induced by TXA2 agonist U-46619; experiment: Platelet Aggregation-inhibition Action 1 (U-46619-induced, platelet-rich plasma); format: cell-based; details: U-46619 1-4 μM final, PRP, compound added one minute before U-46619
Method: Platelet Aggregation-inhibition Action 1
(§1) Blood collected from medial cubital vein is centrifuged at 800 rmp for 10 minutes and the upper portion of the resultant is collected as platelet-rich plasma (PRP). The PRP is dividedly poured into small test tubes and a TXA2 agonist U-46619 is added thereto (final concentration: 1-4 μM) so as to induce platelet aggregation. The degree of platelet aggregation is measured in terms of change in turbidity by a platelet aggregation measuring apparatus (Hematoracer, NIKO BIOSCIENCE). The compound is added one minute before the addition of U-46619 and the concentration of the compound at which the aggregation is inhibited by 50% is calculated as IC50 value.

[2] = system: platelet aggregation induced by ADP; experiment: Platelet Aggregation-Inhibition Action 2 (ADP-induced, platelet-rich plasma); format: cell-based; details: ADP 1-3 μM final, PRP, compound added one minute before ADP
Method: Platelet Aggregation-Inhibition Action 2
as §1, with “PRP).” for “(PRP).”, “ADP” for “a TXA2 agonist U-46619”, “1-3” for “1-4”, “Hematoracer,” for “(Hematoracer,”, “ADP” for “U-46619 and”

TXA2 receptor [3] = target: T1, TXA2 receptor (Oryctolagus cuniculus, UniProt Q6WQI8); experiment: TXA2 Receptor Binding Test 1 ([3H]SQ29548, washed rabbit platelets); design: species or system New Zealand White rabbit; details: [3H]SQ29548 3 nM, rabbit washed platelets 10 mg/ml, 25° C., 60 minutes
T1 sequence (Q6WQI8 1-233): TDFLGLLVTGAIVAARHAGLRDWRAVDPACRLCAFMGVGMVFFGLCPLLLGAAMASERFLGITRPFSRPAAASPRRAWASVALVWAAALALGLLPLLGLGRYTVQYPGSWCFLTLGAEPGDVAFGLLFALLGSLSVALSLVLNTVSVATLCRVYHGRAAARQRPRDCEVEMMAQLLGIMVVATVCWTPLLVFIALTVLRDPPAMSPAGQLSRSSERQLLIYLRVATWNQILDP
Method: TXA2 Receptor Binding Test 1
Blood from a New Zealand White rabbit is taken in a vessel containing ACD solution (prepared by dissolving 1.175 g of sodium citrate, 0.685 g of citric acid and 1 g of dextrose in 50 ml of distilled water) and centrifuged at 180×g for 10 minutes at room temperature to obtain platelet-rich plasma. The obtained platelet-rich plasma is centrifuged at […] at room temperature to precipitate platelets. The platelets are then suspended in 50 mM Tris-HCl buffer (pH 7.2, containing 0.154M of NaCl) and the suspension is centrifuged at 2800×g for 15 minutes at 4° C. These operations are repeated twice to prepare washed platelets and the concentration of the platelets are adjusted to a final concentration of 10 mg/ml (wet weight).
As the ligand of TXA2, tritium-labelled SQ29548 ([^3 H]SQ29548) is used. In the antagonism test, 20 μl of [^3 H]SQ29548 having a final concentration of 3 nM is added to 500 μl of a platelet suspension having a platelet concentration of 10 mg/ml and 2.6 μl of a solution of a test compound dissolved in an appropriate solvent is added thereto. After incubating the resulting mixture at 25° C. for 60 minutes, the mixture is filtered through a glass filter by the cell harvester method. After washing the filter with 50 mM Tris-HCl buffer (3×4 ml), the radioactivity of the filter is measured by a scintillation counter, thereby measuring the amount of the [^3 H]SQ29548 bound to platelets. In the saturation test, 20 μl of [^3 H]SQ29548 is added to a final concentration of 0.1-50 nM and 2.6 μl of BM13505 having a final concentration of 1 μM is added so as to check non-specific binding, followed by carrying out the binding test. The concentration of the test compound at which binding of [^3 H]SQ29548 is inhibited by 50% is determined as the IC50 value.
The results of the evaluation of the activities of the compounds of the present invention by this method are summarized d in Table 3.

TXA2 receptor [4] = target: T2, TXA2 receptor (Homo sapiens, UniProt P21731); experiment: TXA2 Receptor Binding Test 2 ([3H]SQ29548, human platelet membrane fraction); details: 25° C., 30 minutes, pH 7.4, Ki=IC50/[1+(radioactive ligand concentration/Kd)]
T2 construct: the finally obtained precipitate was collected as the platelet membrane fraction; endogenous in cells; host or cells: membrane fraction of human platelets
T2 sequence (P21731 1-343): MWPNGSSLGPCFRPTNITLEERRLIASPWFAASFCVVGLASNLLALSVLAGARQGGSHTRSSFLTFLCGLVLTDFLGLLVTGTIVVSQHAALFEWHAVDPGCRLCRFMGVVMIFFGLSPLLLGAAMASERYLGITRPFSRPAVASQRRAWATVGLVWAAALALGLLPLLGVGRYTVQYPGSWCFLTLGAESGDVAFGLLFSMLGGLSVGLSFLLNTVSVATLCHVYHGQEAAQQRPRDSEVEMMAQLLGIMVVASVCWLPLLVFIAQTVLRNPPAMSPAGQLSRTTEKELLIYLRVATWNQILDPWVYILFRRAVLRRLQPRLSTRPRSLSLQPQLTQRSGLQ
Method: TXA2 Receptor Binding Test 2
Blood collected from human forearm vein and ACD solution (85 mM trisodium citrate, 65 mM citric acid, 2% glucose) in an amount of 1/10 volume of the blood were mixed the resultant was dividedly poured into Spitz tubes an amount of 8 ml/tube. The mixture was centrifuged at 200×g for 10 minutes at room temperature to obtain platelet-rich plasma and the obtained platelet-rich plasma was centrifuged at 1000×g for 15 minutes to obtain platelets. The platelets were washed by centrifugation using a washing buffer (115 mM sodium chloride, 4.3 mM potassium dihydrogen phosphate, 5.5 mM glucose, 1 mM disodium EDTA, 10 μM indomethacin, pH 6.5) and 1 ml of a melting buffer (10 mM Tris(hydroxymethyl)aminomethane, 5 mM magnesium chloride, 2 mM disodium EDTA, pH 7.4) was added. The resultant was frozen in liquid nitrogen and thawed at room temperature. By repeating freezing in liquid nitrogen and thawing totally three times, the platelets were ruptured. The resultant was washed three times by ultracentrifugation (40,000×g, each 20 minutes) using iced 5 mM Tris-HCl buffer, and the finally obtained precipitate was collected as the platelet membrane fraction.
As the ligand of TXA2, tritium-labelled SQ29548 ([^3 H]SQ29548) was used. As the solvent for the receptor binding reaction, 50 mM Tris-HCl buffer (5 mM magnesium chloride, pH 7.4) was used. […] The filter was washed with a iced buffer and radioactivity was measured by scintillation counter. The non-specific binding to substances other than the platelets was measured by the reaction in the presence of SQ29548 having a final concentration of […]. The IC50 value of the test compound and Hill coefficient in the binding test was determined by Pseudo-Hill plot. The receptor dissociation constant (Ki value) was calculated according to the following equation from the IC50 value and the receptor dissociation constant (Kd value) of [^3 H]SQ29548 determined in the saturation test. […]

PGI2 receptor = target: T3, PGI2 receptor (Homo sapiens, UniProt P43119); experiment: PGI2 Receptor Binding Test ([3H]APS-314d, platelet membrane fraction); details: platelet membrane fraction 0.1 mg protein/ml, 4° C., 60 minutes, Ki=IC50/[1+(radioactive ligand concentration/Kd)]
T3 construct: platelet membrane fraction having a concentration of 0.1 mg protein/ml; endogenous in cells
Method: PGI2 Receptor Binding Test
As the ligand of PGI2 receptor, tritium-labelled (1R,2R,3aS,8bS)-2,3,3a,8-tetrahydro-2-hydroxy-1-[(E)-(3S,4S)-3-hydroxy-4-methyl-1-octene-6-ynyl]-1H-cyclopenta[b]benzofuran-5-butanoic acid ([^3 H]APS-314d) was used. The saturation test was carried out by reacting [^3 H]APS-314d (100 μl) having a final concentration of 3-100 nM with a suspension (100 μl) of platelet membrane fraction having a concentration of 0.1 mg protein/ml at 4° C. for 60 minutes under shaking. The competition test was carried out by mixing a mixture (100 μl) of a test compound dissolved in an appropriate solvent and then diluted and [^3 H]APS-314d, and the suspension of platelet membrane fraction (100 μl) having a concentration of 0.1 mg protein/ml, and allowing the mixture to react at 4° C. for 60 minutes under shaking. After the reaction, the resultant was filtered through a glass filter using a cell harvester to collect the membrane fraction on the glass filter. The filter was washed with a iced buffer and radioactivity was measured by scintillation counter. The non-specific binding to substances other than the platelets was measured by the reaction in the presence of sodium beraprost having a final concentration of 10 nM. The IC50 value of the test compound and Hill coefficient in the binding test was determined by Pseudo-Hill plot. The receptor dissociation constant (Ki value) was calculated according to the following equation from the IC50 value and the receptor dissociation constant (Kd value) of [^3 H]APS-314d determined in the saturation test.
Ki=IC50 /[1+(radioactive ligand concentration/Kd)]

T3 sequence (P43119 whole entry): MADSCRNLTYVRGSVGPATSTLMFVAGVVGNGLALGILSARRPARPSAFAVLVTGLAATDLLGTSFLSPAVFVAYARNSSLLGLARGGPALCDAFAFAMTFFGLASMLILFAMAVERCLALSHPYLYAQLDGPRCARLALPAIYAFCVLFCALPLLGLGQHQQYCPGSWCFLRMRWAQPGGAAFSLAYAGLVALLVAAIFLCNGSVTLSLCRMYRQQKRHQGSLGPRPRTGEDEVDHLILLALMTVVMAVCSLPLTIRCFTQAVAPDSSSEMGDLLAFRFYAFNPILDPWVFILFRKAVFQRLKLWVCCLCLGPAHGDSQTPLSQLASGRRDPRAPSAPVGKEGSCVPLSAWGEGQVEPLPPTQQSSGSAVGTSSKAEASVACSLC

Cc1oc2c(OCC(=O)O)cccc2c1CNS(=O)(=O)Cc1ccccc1 [Example 15, Methyl (3-((benzylsulfonylamino)methyl)-2-methylbenzofuran-7-yloxy)acetic acid]
IC50 [1]: 1000 nM | IC50 [2]: 201000 nM | IC50 (TXA2 receptor [3]): 1100 nM

Cc1oc2c(OCC(=O)O)cccc2c1CNS(=O)(=O)CCc1ccccc1 [Example 16, (3-(((2-phenylethyl)sulfonylamino)methyl)-2-methylbenzofuran-7-yloxy)aceticacid]
IC50 [1]: 500 nM | IC50 [2]: 403000 nM | IC50 (TXA2 receptor [3]): 54.5 nM

Cc1oc2c(OCC(=O)O)cccc2c1CCSCCc1ccccc1 [Example 31, (3-(2-(2-phenylethylthio)ethyl)-2-methylbenzofuran-7-yloxy)acetic acid]
IC50 [1]: 440 nM | IC50 [2]: 265000 nM | IC50 (TXA2 receptor [3]): 51.3 nM

O=C(O)COc1cccc2c(COCCC(c3ccccc3)c3ccccc3)coc12 [Example 48, (3-((3,3-diphenylpropyloxy)methyl)benzofuran-7-yloxy)acetic acid]
IC50 [1]: 4800 nM | IC50 [2]: 7800 nM | Ki (TXA2 receptor [4]): 7700 nM | Ki (PGI2 receptor): 380 nM

COC(=O)COc1cccc2c(CCSC(c3ccccc3)c3ccccc3)coc12 [Example 67, Methyl (3-(2-(diphenylmethylthio)ethyl)benzofuran-7-yloxy)acetate]
Ki (TXA2 receptor [4]): 310 nM

O=C(O)COc1cccc2c(CCSC(c3ccccc3)c3ccccc3)coc12 [Example 68]
IC50 [1]: 900 nM | IC50 [2]: 6200 nM | Ki (PGI2 receptor): 410 nM

O=C(O)COc1cccc2c1ccn2CCNS(=O)(=O)c1ccccc1 [Example 104, (1-(2-(phenylsulfonylamino)ethyl)indole-4-yloxy)acetic acid]
IC50 [1]: 5100 nM | IC50 (TXA2 receptor [3]): 26.7 nM

O=C(O)COc1cccc2c1ccn2CCCC(c1ccccc1)c1ccccc1 [Example 118, (1-(4,4-diphenylbutyl)indole-4-yloxy)acetic acid]
IC50 [1]: 1700 nM | IC50 [2]: 3600 nM | Ki (TXA2 receptor [4]): 3600 nM | Ki (PGI2 receptor): 440 nM
